Data reported in patent US6777412B2 (priority 1990, dated 2004).

Experiments:
Format in all cases: in vivo
Puccinia recondita = test: Foliar fungal disease test on plants: Puccinia recondita (Pr); conditions: 100 ppm active ingredient foliar spray plus root drench (approx. 40 ppm a.i. in dry soil), one or two days before inoculation
Description: (§1) The compounds were tested against a variety of foliar fungal diseases of plants. The technique employed was as follows.
(§2) The plants were grown in John Innes Potting Compost (No.1 or 2) in 4 cm diameter minipots. The test compounds were formulated either by bead milling with aqueous Dispersol T or as a solution in acetone or acetone/ethanol which was diluted to the required concentration immediately before use. For the foliage diseases, the formulations (100 ppm active ingredient except where otherwise indicated) were sprayed onto the foliage and applied to the roots of the plants in the soil. The sprays were applied to maximum retention and the root drenches to a final concentration equivalent to approximately 40 ppm a.i. in dry soil. Tween 20, to give a final concentration of 0.05%, was added when the sprays were applied to cereals.
(§3) For most of the tests the compound was applied to the soil (roots) and to the foliage (by spraying) one or two days before the plant was inoculated with the disease. An exception was the test on Erysiphe graminis in which the plants were inoculated 24 hours before treatment. Foliar pathogens were applied by spray as spore suspensions onto the leaves of test plants. After inoculation, the plants were put into an appropriate environment to allow infection to proceed and then incubated until the disease was ready for assessment. The period between inoculation and assessment varied from four to fourteen days according to the disease and environment.
(§4) The disease control vas recorded by the following grading:
(§5) 3=trace-5% of disease on untreated plants
(§6) 2=6-25% of disease on untreated plants
(§7) 1=26-59% of disease on untreated plants
(§8) 0=60-100% of disease on untreated plants

[1] = system: Erysiphe graminis tritici; test: Foliar fungal disease test on plants: Erysiphe graminis tritici (Egt); conditions: 100 ppm active ingredient foliar spray plus root drench (approx. 40 ppm a.i. in dry soil); plants inoculated 24 hours before treatment
Description: as §1, §2, §3, §4, §5, §6, §7, §8
Egt Erysiphe graminis tritici

Septoria nodorum = test: Foliar fungal disease test on plants: Septoria nodorum (Sn); conditions: 100 ppm active ingredient foliar spray plus root drench (approx. 40 ppm a.i. in dry soil), one or two days before inoculation
Description: as §1, §2, §3, §4, §5, §6, §7, §8

Pyricularia oryzae = conditions: 100 ppm active ingredient foliar spray plus root drench (approx. 40 ppm a.i. in dry soil), one or two days before inoculation
Venturia inaequalis = test: Foliar fungal disease test on plants: Venturia inaequalis (Vi); conditions: 100 ppm active ingredient foliar spray plus root drench (approx. 40 ppm a.i. in dry soil), one or two days before inoculation
Description: as §1, §2, §3, §4, §5, §6, §7, §8

Plasmopara viticola = test: Foliar fungal disease test on plants: Plasmopara viticola (Pv); conditions: 100 ppm active ingredient foliar spray plus root drench (approx. 40 ppm a.i. in dry soil), one or two days before inoculation
Description: as §1, §2, §3, §4, §5, §6, §7, §8

[2] = system: Phytophthora infestans lycopersici; conditions: 100 ppm active ingredient foliar spray plus root drench (approx. 40 ppm a.i. in dry soil), one or two days before inoculation
Erysiphe graminis hordei = test: Foliar fungal disease test on plants: Erysiphe graminis hordei (Egh); conditions: 100 ppm active ingredient foliar spray plus root drench (approx. 40 ppm a.i. in dry soil); plants inoculated 24 hours before treatment
Description: as §1, §2, §3, §4, §5, §6, §7, §8
Egh Erysiphe graminis hordei

Compound | disease control grading, Pr (Puccinia recondita) (Puccinia recondita) | disease control grading, Egt (Erysiphe graminis tritici) [1] | disease control grading, Sn (Septoria nodorum) (Septoria nodorum) | disease control grading, Po (Pyricularia oryzae) (Pyricularia oryzae) | disease control grading, Vi (Venturia inaegualis) (Venturia inaequalis) | disease control grading, Pv (Plasmopara viticola) (Plasmopara viticola) | disease control grading, Pil (Phytophthora infestans lycopersici) [2] | disease control grading, Egh (Erysiphe graminis hordei) (Erysiphe graminis hordei)
CO/C=C(/C(=O)OC)c1ccccc1Oc1cc(Cc2ccccc2)ncn1 [9 of Table I] | 0 (0=60-100% of disease on untreated plants) | 4 (4=no disease) | 4 (4=no disease) | 4 (4=no disease) | 4 (4=no disease) | 4 (4=no disease) | 4 (4=no disease) | –
CO/C=C(/C(=O)OC)c1ccccc1Oc1cc(OCc2ccccn2)ncn1 [222 of Table I] | 4 (4=no disease) | 4 (4=no disease) | 3 (3=trace-5% of disease on untreated plants) | 4 (4=no disease) | 4 (4=no disease) | 4 (4=no disease) | 0 (0=60-100% of disease on untreated plants) | –
CO/C=C(/C(=O)OC)c1ccccc1Oc1cc(OCc2cccnc2)ncn1 [229 of Table I] | 4 (4=no disease) | 4 (4=no disease) | 4 (4=no disease) | 4 (4=no disease) | 4 (4=no disease) | 4 (4=no disease) | 3 (3=trace-5% of disease on untreated plants) | –
CO/C=C(/C(=O)OC)c1ccccc1Oc1cc(OCc2ccncc2)ncn1 [236 of Table I] | 4 (4=no disease) | 3 (3=trace-5% of disease on untreated plants) | 3 (3=trace-5% of disease on untreated plants) | 2 (2=6-25% of disease on untreated plants) | 4 (4=no disease) | 4 (4=no disease) | 4 (4=no disease) | –
CO/C=C(/C(=O)OC)c1ccccc1Oc1cc(OCc2ccncn2)ncn1 [250 of Table I] | – | 4 (4=no disease) | 4 (4=no disease) | 2 (2=6-25% of disease on untreated plants) | – | 4 (4=no disease) | – | –
CO/C=C(/C(=O)OC)c1ccccc1Oc1cc(OCCc2ccccc2Cl)ncn1 [368 of Table I] | 4 (4=no disease) | – | – | 3 (3=trace-5% of disease on untreated plants) | 4 (4=no disease) | 4 (4=no disease) | 3 (3=trace-5% of disease on untreated plants) | 4 (4=no disease)
CO/C=C(/C(=O)OC)c1ccccc1Oc1cc(OC(C#N)c2ccccc2)ncn1 (centres unmarked) [369 of Table I] | 4 (4=no disease) | – | – | 4 (4=no disease) | 4 (4=no disease) | 4 (4=no disease) | 3 (3=trace-5% of disease on untreated plants) | 4 (4=no disease)
CO/C=C(/C(=O)OC)c1ccccc1Oc1cc(OCCc2c(F)cccc2F)ncn1 [370 of Table I] | 4 (4=no disease) | – | – | 4 (4=no disease) | 4 (4=no disease) | 4 (4=no disease) | 4 (4=no disease) | 4 (4=no disease)
CO/C=C(/C(=O)OC)c1ccccc1Oc1cc(OC(c2ccccc2)C(F)(F)F)ncn1 (centres unmarked) [371 of Table I] | 4 (4=no disease) | – | – | 4 (4=no disease) | 4 (4=no disease) | 4 (4=no disease) | 0 (0=60-100% of disease on untreated plants) | 4 (4=no disease)
CO/C=C(/C(=O)OC)c1ccccc1Oc1cc(OCCc2c(F)cccc2Cl)ncn1 [372 of Table I] | 4 (4=no disease) | – | – | 4 (4=no disease) | 4 (4=no disease) | 4 (4=no disease) | 4 (4=no disease) | 4 (4=no disease)
CO/C=C(/C(=O)OC)c1ccccc1Oc1cc(OCCc2c(Cl)cccc2Cl)ncn1 [373 of Table I] | 4 (4=no disease) | – | – | 4 (4=no disease) | 4 (4=no disease) | 4 (4=no disease) | 3 (3=trace-5% of disease on untreated plants) | 4 (4=no disease)
CO/C=C(/C(=O)OC)c1ccccc1Oc1cc(OCc2c(F)cccc2F)ncn1 [374 of Table I] | 4 (4=no disease) | – | – | 4 (4=no disease) | 4 (4=no disease) | 4 (4=no disease) | 4 (4=no disease) | 4 (4=no disease)
CO/C=C(/C(=O)OC)c1ccccc1Oc1cc(Nc2ccccc2OC)ncn1 [380 of Table I] | 4 (4=no disease) | – | – | 4 (4=no disease) | 4 (4=no disease) | 4 (4=no disease) | 3 (3=trace-5% of disease on untreated plants) | 4 (4=no disease)
CO/C=C(/C(=O)OC)c1ccccc1Oc1cc(OS(=O)(=O)c2ccccc2C#N)ncn1 [381 of Table I] | 2 (2=6-25% of disease on untreated plants) | – | – | 2 (2=6-25% of disease on untreated plants) | 0 (0=60-100% of disease on untreated plants) | 0 (0=60-100% of disease on untreated plants) | 0 (0=60-100% of disease on untreated plants) | 0 (0=60-100% of disease on untreated plants)
CO/C=C(/C(=O)OC)c1ccccc1Oc1cc(OCCOc2c(F)cccc2F)ncn1 [382 of Table I] | 4 (4=no disease) | – | – | 4 (4=no disease) | 4 (4=no disease) | 4 (4=no disease) | 4 (4=no disease) | 4 (4=no disease)
CO/C=C(/C(=O)OC)c1ccccc1Oc1cc(OC/C=C/c2ccccc2C#N)ncn1 [395 of Table I] | 4 (4=no disease) | 4 (4=no disease) | 3 (3=trace-5% of disease on untreated plants) | 4 (4=no disease) | 4 (4=no disease) | 4 (4=no disease) | – | –
CO/C=C(/C(=O)OC)c1ccccc1Oc1cc(OCCOc2ccccc2C#N)ncn1 [396 of Table I] | 4 (4=no disease) | 4 (4=no disease) | 4 (4=no disease) | 4 (4=no disease) | 3 (3=trace-5% of disease on untreated plants) | 4 (4=no disease) | – | –
